Measured values published in PubChem BioAssay (NCI).
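Tested at 5 concentrations; 48 h exposure; 96-well plates; endpoints linearly interpolated, else capped at highest concentration. GI50 = concentration required for 50% inhibition of growth. At the TGI there is no net growth.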

Columns and labels:
Experiment in all cases: NCI anticancer screen, dose series, 48 h
DLD-1 colon = system: DLD-1 colon
DMS 114 small cell lung = system: DMS 114 small cell lung
DMS 273 small cell lung = system: DMS 273 small cell lung
HOP-18 NSCLC = system: HOP-18 NSCLC
M19-MEL melanoma = system: M19-MEL melanoma
SNB-78 CNS = system: SNB-78 CNS
DU-145 prostate = system: DU-145 prostate
MDA-MB-231 breast = system: MDA-MB-231 breast
MDA-MB-435 = system: MDA-MB-435
T-47D breast = system: T-47D breast
786-0 renal = system: 786-0 renal
XF 498 CNS = system: XF 498 CNS

| Structure (SMILES) | TGI (DLD-1 colon) | TGI (DMS 114 small cell lung) | TGI (DMS 273 small cell lung) | TGI (HOP-18 NSCLC) | TGI (M19-MEL melanoma) | TGI (SNB-78 CNS) | TGI (DU-145 prostate) | TGI (MDA-MB-231 breast) | TGI (MDA-MB-435) | TGI (T-47D breast) | TGI (786-0 renal) | TGI (XF 498 CNS) | further results |
| --- | --- | --- | --- | --- | --- | --- | --- | --- | --- | --- | --- | --- | --- |
| O=C1C=C(C2OC(CO)C(O)C2O)C(=O)N1 (stereo not drawn) | > 100 µM | > 100 µM | > 100 µM | > 100 µM | > 100 µM | > 100 µM | – | – | – | – | – | – | – |
| CCCC(C)c1ccc(OCCCCCCN2CCNCC2)cc1 (stereo not drawn) | – | – | – | – | – | – | 5.43 µM | 3.58 µM | 3.22 µM | 3.72 µM | – | – | GI50 (DU-145 prostate): 2.25 µM; GI50 (MDA-MB-231 breast): 1.75 µM; GI50 (MDA-MB-435): 1.7 µM; GI50 (T-47D breast): 1.71 µM |
| N#C[S-].[La+3].c1cnc2c(c1)ccc1cccnc12.c1cnc2c(c1)ccc1cccnc12.c1cnc2c(c1)ccc1cccnc12 | – | 5.45 µM | – | 9.46 µM | 3.69 µM | – | – | – | – | – | 11.7 µM | 9.42 µM | GI50 (DMS 114 small cell lung): 1.58 µM; GI50 (HOP-18 NSCLC): 0.952 µM; GI50 (M19-MEL melanoma): 0.688 µM; GI50 (XF 498 CNS): 4.03 µM |
| OC(CC1CCCCN1)c1ccc2c(c1)oc1ccccc12 (stereo not drawn) | – | – | – | – | – | – | > 100 µM | > 100 µM | > 100 µM | > 100 µM | > 100 µM | – | – |
| CC1(C)[C@@H]2CC[C@]1(C)[C@H](OC(=O)CSC#N)C2 | – | – | – | – | – | – | > 100 µM | > 100 µM | > 100 µM | > 100 µM | 34.1 µM | – | – |
| COc1cc2c(cc1O)c(O)cc1c3cc(OC)c(OC)cc3c[n+](C)c21 | – | – | – | – | – | – | > 43.7 µM | > 67.9 µM | 30.9 µM | > 80.3 µM | > 100 µM | – | – |
| Cc1ccc2c(ccc(/C=C/c3ccc(O)c4ncccc34)[n+]2C)c1 | 38.3 µM | 4.28 µM | 17.2 µM | 26.4 µM | 22.6 µM | 27.5 µM | > 57.3 µM | > 61.8 µM | > 52.1 µM | > 32.1 µM | 26.7 µM | 16.8 µM | – |
| O=C(c1ccccc1)c1ccc2n[se]nc2c1 | > 100 µM | 60 µM | > 100 µM | – | – | > 100 µM | – | – | – | – | – | – | – |
| CN(C)/C=C/C(=CC=[N+](C)C)/C=C/N(C)C | > 100 µM | – | > 100 µM | – | – | > 100 µM | – | – | – | – | > 100 µM | > 100 µM | – |
| CCC1C[N+]23CCc4c([nH]c5ccccc45)C2CC1CC3 (stereo not drawn) | > 100 µM | > 100 µM | > 100 µM | – | > 100 µM | – | – | – | – | – | – | > 100 µM | – |
| CN(C)CCNC(=O)c1cccc2c(=O)c3ccccc3oc12 | > 100 µM | > 69.8 µM | > 91.2 µM | > 100 µM | 56.7 µM | > 100 µM | – | – | – | – | – | > 93.9 µM | – |
| CCOP(=Nc1ccc(N(C)C)cc1)(OCC)OCC | – | – | – | – | – | – | > 100 µM | > 100 µM | > 100 µM | – | – | – | – |
| OC(CNc1ccccn1)c1ccccc1 (stereo not drawn) | – | – | – | – | – | – | > 100 µM | > 100 µM | > 100 µM | > 100 µM | > 100 µM | – | – |
| Cc1ccc(S(=O)(=O)Nc2cccc3c(=O)[nH]cnc23)cc1 | – | > 100 µM | > 100 µM | > 100 µM | > 100 µM | > 100 µM | – | – | – | – | > 100 µM | > 100 µM | – |
| CC(=O)C(C(c1ccccc1)N1CCOCC1)N1CCOCC1 (stereo not drawn) | – | – | – | – | – | – | > 100 µM | > 100 µM | > 100 µM | > 100 µM | > 100 µM | – | – |
| CC1=C2C(O)C(C(C)C(=O)N(C)C)CCC2(C)C=CC1=O (stereo not drawn) | > 100 µM | > 100 µM | > 100 µM | > 100 µM | > 100 µM | > 100 µM | – | – | – | – | – | > 100 µM | – |
